Data on 2 compounds can be found in publication PMC9304199, “A small molecule CFTR potentiator restores ATP‐dependent channel gating to the cystic fibrosis mutant G551D‐CFTR” (British Journal of Pharmacology, 2022).

Experiment [1] addresses T1, native CFTR, genotype F508del/F508del (Homo sapiens, UniProt P13569, DEL508-508).
T1 construct: For functional studies of native CFTR, we used primary cultures of human bronchial epithelial cells; host or cells: primary human bronchial epithelial cells, F508del/F508del, air-liquid interface cultures
Briefly: Ussing chamber CFTR-mediated short-circuit current (Isc) in F508del/F508del human bronchial epithelial cells. The following applies: for EC50: F508del/F508del epithelia of hBE cells, basal F508del‐CFTR expression, Isc, 27°C, read-out: EC50 (μM) (95% CI); for Emax: HBE, read-out: Maximal effect (%) (95% CI). Format: cell-based. From the text:
For functional studies of native CFTR, we used primary cultures of human bronchial epithelial cells of genotypes F508del/F508del and F508del/G551D. Passage 1 (P1) human bronchial epithelial cells from SH Randell (University of North Carolina [UNC] Cystic Fibrosis Center Tissue Procurement and Cell Culture Core) were differentiated at an air–liquid interface as described by Neuberger et al., ([2011]) with some modifications. The research conducted on human cells at UNC has been verified as compliant with Pfizer policies, including institutional review board or institutional ethics committee approval. Cells were thawed and expanded in BEGM™ Bronchial Epithelial Cell Growth Medium (cat. no. CC‐3170, Lonza, USA) supplemented with retinoic acid (10 nM) and banked at P2. For functional assays, P2 cells were expanded to P4, and 5 × 10^5 P4 human bronchial epithelial cells were seeded in growth medium on Snapwell filter inserts (cat. no. 3801, Corning, NY, USA). Cells were switched to differentiation medium the following day and cultured submerged for 3 days before the medium was removed from the apical membrane to establish an air–liquid interface. Thereafter, the basolateral medium was changed every 2–3 days and mucus washed from the apical membrane every 2–3 weeks and the day prior to use starting 21 days after initiating air–liquid interface culture.
After >30 days of air–liquid interface culture on Snapwell filter inserts, human bronchial epithelial cells formed well differentiated, electrically tight epithelia (Rt > 200 Ω cm^2). Prior to study, F508del/F508del and F508del/G551D human bronchial epithelial cell cultures were incubated at 37°C and 5% CO2.
Epithelia were mounted in Ussing chambers and data acquired and analysed as described above for Ussing chamber studies of FRT cells heterologously expressing CFTR with the following exceptions. Both the apical and basolateral membranes were bathed in solutions containing (mM): 137 NaCl, 4 KCl, 1.8 CaCl2, 1 MgCl2, 10 Na HEPES, and 10 glucose (pH 7.4 with NaOH). Epithelia of F508del/G551D human bronchial epithelial cells were studied at 35°C, whereas those of F508del/F508del human bronchial epithelial cells were assayed at 27°C to maintain the apical membrane expression of F508del‐CFTR. After cancelling voltage offsets, transepithelial voltage was clamped at 0 mV and short‐circuit current (Isc) recorded continuously. The protocol to record CFTR‐mediated Isc was the same as for ICl ^apical measurements except that amiloride (30 μM, apical solution) was added to inhibit the epithelial Na^+ channel before forskolin (10 μM, apical and basolateral solutions) addition.

Experiment [2] concerns the target F508del‐CFTR (Homo sapiens, UniProt P13569, DEL508-508). The experiment can be described thus: F508del‐CFTR plasma membrane stability in FRT epithelia (Ussing chamber Isc after cycloheximide). Format: cell-based. Set-up: expressed in transfected cells; BHK cells from MD Amaral. The conditions noted are these: for acute potentiation of forskolin-stimulated CFTR-mediated Isc: DMSO-treated low temperature-rescued F508del‐CFTR FRT epithelia, t = 0 h, forskolin 10 μM, ivacaftor 1 μM, then CP‐628006 10 μM. As for the experimental part:
To evaluate the effects of CP‐628006 on the plasma membrane stability of F508del‐CFTR, we used a modification of the method described by Meng et al. ([2017]). After 48‐h incubation at 27°C to rescue the plasma membrane expression of F508del‐CFTR, FRT epithelia were treated with cycloheximide (50 μg·ml^−1) and DMSO or test small molecules, 15 min prior to t = 0 h. At t = 0, 2, 4, and 6 h after these treatments, F508del‐CFTR expressing FRT epithelia were mounted in Ussing chambers (Warner Instrument Corp., Dual Channel Chamber; Harvard Apparatus Ltd., Edenbridge, UK) and Isc responses recorded.
CFTR‐mediated Isc was recorded using a large Cl^− concentration gradient without permeabilizing the basolateral membrane. The solution bathing the basolateral membrane contained (mM): 140 NaCl, 5 KCl, 0.36 K2HPO4, 0.44 KH2PO4, 1.3 CaCl2, 0.5 MgCl2, 10 HEPES, and 4.2 NaHCO3, adjusted to pH 7.2 with Tris ([Cl^−], 149 mM). The solution bathing the apical membrane was identical to that of the basolateral solution with the exception that (mM): 133.3 Na gluconate + 2.5 NaCl and 5 K gluconate replaced 140 NaCl and 5 KCl, respectively, ([Cl^−], 14.8 mM). To compensate for the calcium buffering capacity of gluconate, we used 5.7‐mM Ca^2+ in the apical solution. All solutions were maintained at 37°C and bubbled continuously with 5% CO2.
After cancelling voltage offsets, we clamped transepithelial voltage (referenced to the basolateral solution) at 0 mV and recorded Isc continuously using an epithelial voltage‐clamp amplifier (Warner Instrument Corp., model EC‐825; Harvard Apparatus Ltd.), digitising data as described previously (Li et al., [2004]). The resistance of the filter and solutions, in the absence of cells, was subtracted from all measurements.

Sequence of F508del‐CFTR (P13569 with tags, fused parts or gaps DEL508-508): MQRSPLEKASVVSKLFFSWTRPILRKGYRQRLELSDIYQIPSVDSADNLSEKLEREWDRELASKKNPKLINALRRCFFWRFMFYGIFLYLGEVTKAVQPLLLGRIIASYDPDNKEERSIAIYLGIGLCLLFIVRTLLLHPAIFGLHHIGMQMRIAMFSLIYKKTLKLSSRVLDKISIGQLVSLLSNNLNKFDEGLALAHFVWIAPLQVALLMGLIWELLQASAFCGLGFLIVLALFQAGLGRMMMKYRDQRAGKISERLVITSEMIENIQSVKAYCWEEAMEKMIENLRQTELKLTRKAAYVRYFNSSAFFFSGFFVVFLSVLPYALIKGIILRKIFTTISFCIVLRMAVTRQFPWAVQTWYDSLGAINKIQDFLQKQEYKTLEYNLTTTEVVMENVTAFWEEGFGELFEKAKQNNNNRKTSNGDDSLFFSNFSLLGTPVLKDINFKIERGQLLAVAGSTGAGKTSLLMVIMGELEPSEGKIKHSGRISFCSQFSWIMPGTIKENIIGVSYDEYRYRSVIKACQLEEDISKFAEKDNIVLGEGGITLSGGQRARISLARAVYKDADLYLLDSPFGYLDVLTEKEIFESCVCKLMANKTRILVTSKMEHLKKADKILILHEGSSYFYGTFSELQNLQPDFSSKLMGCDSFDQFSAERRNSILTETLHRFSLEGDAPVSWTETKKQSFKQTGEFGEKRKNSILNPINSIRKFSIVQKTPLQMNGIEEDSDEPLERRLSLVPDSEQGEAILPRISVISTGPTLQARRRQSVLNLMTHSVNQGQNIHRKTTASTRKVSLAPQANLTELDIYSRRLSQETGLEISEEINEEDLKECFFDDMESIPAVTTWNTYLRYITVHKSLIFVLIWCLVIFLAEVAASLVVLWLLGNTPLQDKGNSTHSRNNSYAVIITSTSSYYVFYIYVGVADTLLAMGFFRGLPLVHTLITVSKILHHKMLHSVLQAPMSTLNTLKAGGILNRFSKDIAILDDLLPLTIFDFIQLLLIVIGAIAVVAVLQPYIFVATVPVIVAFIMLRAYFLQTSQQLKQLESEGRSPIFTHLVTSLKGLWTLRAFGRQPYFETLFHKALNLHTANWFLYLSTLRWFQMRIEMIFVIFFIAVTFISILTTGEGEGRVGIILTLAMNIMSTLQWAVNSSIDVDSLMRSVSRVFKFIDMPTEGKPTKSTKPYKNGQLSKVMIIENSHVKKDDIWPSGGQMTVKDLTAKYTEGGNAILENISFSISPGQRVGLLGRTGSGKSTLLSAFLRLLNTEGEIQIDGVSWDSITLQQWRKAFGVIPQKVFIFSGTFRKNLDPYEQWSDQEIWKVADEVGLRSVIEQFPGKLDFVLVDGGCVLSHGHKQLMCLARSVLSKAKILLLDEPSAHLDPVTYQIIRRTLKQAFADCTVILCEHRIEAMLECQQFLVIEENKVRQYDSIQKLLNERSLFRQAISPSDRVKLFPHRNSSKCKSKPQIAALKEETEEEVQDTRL
T1 sequence (P13569 with tags, fused parts or gaps DEL508-508): as above

For `Cc1ncccc1CNC(=O)c1ccc2c(c1)CC[C@H]1C[C@](O)(CCC(F)(F)F)CC[C@]21Cc1ccccc1` (racemic) [CP‐628006, rac‐(4bR,7R,8aS)‐4b‐benzyl‐7‐hydroxy‐N‐((2‐methylpyridin‐3‐yl)methyl)‐7‐(3,3,3‐trifluoropropyl)‐4b,5,6,7,8,8a,9,10‐octahydrophenanthrene‐2‐carboxamide], in experiment [1], the EC50 is 0.062 µM and the Emax is 56%. The “acute potentiation of forskolin-stimulated CFTR-mediated Isc” value in experiment [2] is reported as “had little additional effect”. Also, in experiment [2] (low temperature-rescued F508del‐CFTR FRT epithelia treated with cycloheximide 50 μg·ml−1 and compound 10 μM, 37°C), the “decline of CFTR-mediated Isc over 6 h” value is “slower”.
For `CC(C)(C)c1cc(C(C)(C)C)c(NC(=O)c2c[nH]c3ccccc3c2=O)cc1O` [ivacaftor, reference compound], in experiment [1], the EC50 was 0.002 µM and the Emax was found to be 102%. Besides, in experiment [2], the “acute potentiation of forskolin-stimulated CFTR-mediated Isc” value is on record as “potentiated two‐fold”.
